{"source": "patent US9918964B2", "about": "“Reducing platelet activation, aggregation and platelet-stimulated thrombosis or blood coagulation by reducing mitochondrial respiration” (priority 2010, dated 2018)", "system": "platelets in whole blood", "assay": "Platelet function testing with the Hemostasis Mechanism Analyzer (HMA): clumping, sticking, clotting in whole blood", "format": "cell-based, human", "conditions": "for activity in the platelet assays (active agent or inactive): in vitro whole blood assay, clumping, sticking, clotting; for activity at 3300 µg/mL / activity at 6700 µg/mL / activity at 11700 µg/mL / activity at 23300 µg/mL / activity at 5000 µg/mL / activity at 670 µg/mL: Homo sapiens, Platelet; for activity at 670 µg/mL: Dosage (mg/ml) 0.67", "key": {"[1]": {"conditions": "Dosage (mg/ml) 3.3, 0 dosage = 100, read-out: % clot time increase"}, "[2]": {"conditions": "Dosage (mg/ml) 3.3, 0 dosage = 100, read-out: % clump time increase"}, "[3]": {"conditions": "Dosage (mg/ml) 3.3, 0 dosage = 100, read-out: % stick time increase"}, "[4]": {"conditions": "Dosage (mg/ml) 6.7, 0 dosage = 100, read-out: % clot time increase"}, "[5]": {"conditions": "Dosage (mg/ml) 6.7, 0 dosage = 100, read-out: % clump time increase"}, "[6]": {"conditions": "Dosage (mg/ml) 6.7, 0 dosage = 100, read-out: % stick time increase"}, "[7]": {"conditions": "read-out: % clump time increase"}, "[8]": {"conditions": "read-out: % stick time increase"}}, "note": "Where “and” joins values, the source holds several entries; their conditions need not be identical. Equal values may be shown once. Read-outs that look alike come from different tables or passages of the source.", "data": [{"molecule": "c1ccc(-c2cnn[nH]2)cc1", "note": "[Compound 2, 5-phenyl-1H-triazole]", "values": [{"measurement": "activity in the platelet assays (active agent or inactive)", "result": "met the criteria for active agents"}]}, {"molecule": "CCCCC[C@H](O)CC(=O)CCc1ccc(O)c(OC)c1", "note": "[Compound 88, (5S)-5-hydroxy-1-(4-hydroxy-3-methoxy-phenyl)decan-3-one]", "values": [{"measurement": "activity at 3300 µg/mL", "setting": "[1]", "result": 104, "unit": "%"}, {"measurement": "activity at 3300 µg/mL", "setting": "[2]", "result": 107, "unit": "%"}, {"measurement": "activity at 3300 µg/mL", "setting": "[3]", "result": 100, "unit": "%"}, {"measurement": "activity at 6700 µg/mL", "setting": "[4]", "result": 102, "unit": "%"}, {"measurement": "activity at 6700 µg/mL", "setting": "[5]", "result": 106, "unit": "%"}, {"measurement": "activity at 6700 µg/mL", "setting": "[6]", "result": 101, "unit": "%"}, {"measurement": "activity at 11700 µg/mL", "setting": "Dosage (mg/ml) 11.7, 0 dosage = 100, read-out: % clot time increase", "result": 104, "unit": "%"}, {"measurement": "activity at 11700 µg/mL", "setting": "Dosage (mg/ml) 11.7, 0 dosage = 100, read-out: % clump time increase", "result": 111, "unit": "%"}, {"measurement": "activity at 11700 µg/mL", "setting": "Dosage (mg/ml) 11.7, 0 dosage = 100, read-out: % stick time increase", "result": 110, "unit": "%"}, {"measurement": "activity at 23300 µg/mL", "setting": "Dosage (mg/ml) 23.3, 0 dosage = 100, read-out: % clot time increase", "result": 100, "unit": "%"}, {"measurement": "activity at 23300 µg/mL", "setting": "Dosage (mg/ml) 23.3, 0 dosage = 100, read-out: % clump time increase", "result": 128, "unit": "%"}, {"measurement": "activity at 23300 µg/mL", "setting": "Dosage (mg/ml) 23.3, 0 dosage = 100, read-out: % stick time increase", "result": 132, "unit": "%"}, {"measurement": "activity in the platelet assays (active agent or inactive)", "result": "none of them were active agents"}]}, {"molecule": "Cn1cc[nH]c1=S", "note": "[Compound 78, 3-methyl-1H-imidazole-2-thione, reference compound]", "values": [{"measurement": "activity at 6700 µg/mL", "setting": "read-out: % clot time increase", "result": 110, "unit": "%"}, {"measurement": "activity at 11700 µg/mL", "setting": "read-out: % clot time increase", "result": 123, "unit": "%"}, {"measurement": "activity at 23300 µg/mL", "setting": "read-out: % clot time increase", "result": 156, "unit": "%"}, {"measurement": "activity at 6700 µg/mL", "setting": "[7]", "result": 124, "unit": "%"}, {"measurement": "activity at 11700 µg/mL", "setting": "[7]", "result": 132, "unit": "%"}, {"measurement": "activity at 23300 µg/mL", "setting": "[7]", "result": 216, "unit": "%"}, {"measurement": "activity at 6700 µg/mL", "setting": "[8]", "result": 101, "unit": "%"}, {"measurement": "activity at 11700 µg/mL", "setting": "[8]", "result": 118, "unit": "%"}, {"measurement": "activity at 23300 µg/mL", "setting": "[8]", "result": 203, "unit": "%"}, {"measurement": "activity in the platelet assays (active agent or inactive)", "result": "met the criteria for active agents"}]}, {"molecule": "C1CCc2nnnn2CC1", "note": "[Compound 52, 6,7,8,9-tetrahydro-5H-tetrazolo[1,5-a]azepine]", "values": [{"measurement": "activity at 3300 µg/mL", "setting": "read-out: % clot time increase", "result": 105, "unit": "%"}, {"measurement": "activity at 5000 µg/mL", "setting": "read-out: % clot time increase", "result": 112, "unit": "%"}, {"measurement": "activity at 6700 µg/mL", "setting": "read-out: % clot time increase", "result": 117, "unit": "%"}, {"measurement": "activity at 3300 µg/mL", "setting": "[7]", "result": 115, "unit": "%"}, {"measurement": "activity at 5000 µg/mL", "setting": "[7]", "result": 143, "unit": "%"}, {"measurement": "activity at 6700 µg/mL", "setting": "[7]", "result": 130, "unit": "%"}, {"measurement": "activity at 3300 µg/mL", "setting": "[8]", "result": 120, "unit": "%"}, {"measurement": "activity at 5000 µg/mL", "setting": "[8]", "result": 138, "unit": "%"}, {"measurement": "activity at 6700 µg/mL", "setting": "[8]", "result": 131, "unit": "%"}]}, {"molecule": "COCCc1nn[nH]n1", "note": "[Compound 68, 5-(2-methoxyethyl)-2H-tetrazole]", "values": [{"measurement": "activity at 670 µg/mL", "setting": "0 dosage = 100, read-out: % clot time increase", "result": 108, "unit": "%"}, {"measurement": "activity at 670 µg/mL", "setting": "0 dosage = 100, read-out: % clump time increase", "result": 100, "unit": "%"}, {"measurement": "activity at 670 µg/mL", "setting": "0 dosage = 100, read-out: % stick time increase", "result": 110, "unit": "%"}, {"measurement": "activity at 3300 µg/mL", "setting": "[1]", "result": 107, "unit": "%"}, {"measurement": "activity at 3300 µg/mL", "setting": "[2]", "result": 100, "unit": "%"}, {"measurement": "activity at 3300 µg/mL", "setting": "[3]", "result": 114, "unit": "%"}, {"measurement": "activity at 6700 µg/mL", "setting": "[4]", "result": 129, "unit": "%"}, {"measurement": "activity at 6700 µg/mL", "setting": "[5]", "result": 186, "unit": "%"}, {"measurement": "activity at 6700 µg/mL", "setting": "[6]", "result": 175, "unit": "%"}]}, {"molecule": "1H-triazole [Compound 99]", "values": [{"measurement": "% clot time increase", "result": "108% and 103%"}, {"measurement": "% clump time increase", "result": "103% and 99%"}, {"measurement": "% stick time increase", "result": "99% and 104%"}]}, {"molecule": "Cc1ncsc1CCCl", "note": "[Compound 45, 5-(2-chloroethyl)-4-methyl-thiazole]", "values": [{"measurement": "activity at 6700 µg/mL", "setting": "read-out: % clot time increase", "result": 101, "unit": "%"}, {"measurement": "activity at 6700 µg/mL", "setting": "[7]", "result": 119, "unit": "%"}, {"measurement": "activity at 6700 µg/mL", "setting": "[8]", "result": 108, "unit": "%"}]}, {"molecule": "COc1ccc(-c2nnn[nH]2)cc1", "note": "[Compound 26, 5-(4-methoxyphenyl)-1H-tetrazole]", "values": [{"measurement": "activity at 6700 µg/mL", "setting": "[4]", "result": 102, "unit": "%"}, {"measurement": "activity at 6700 µg/mL", "setting": "[5]", "result": 122, "unit": "%"}, {"measurement": "activity at 6700 µg/mL", "setting": "[6]", "result": 118, "unit": "%"}]}, {"molecule": "C=CCSCC=C", "note": "[Compound 86, 3-allylsulfanylprop-1-ene]", "values": [{"measurement": "activity in the platelet assays (active agent or inactive)", "result": "none of them were active agents"}]}, {"molecule": "COc1cc(/C=C/C(=O)/C=C(O)/C=C/c2ccc(O)c(OC)c2)ccc1O", "note": "[Compound 85, (1E,4Z,6E)-5-hydroxy-1,7-bis(4-hydroxy-3-methoxy-phenyl)hepta-1,4,6-trien-3-one]", "values": [{"measurement": "activity in the platelet assays (active agent or inactive)", "result": "none of them were active agents"}]}, {"molecule": "FC(F)(F)c1ccc(-c2nnn[nH]2)cc1", "note": "[Compound 18, 5-[4-(trifluoromethyl)phenyl]-1H-tetrazole]", "values": [{"measurement": "activity at 6700 µg/mL", "setting": "[4]", "result": 106, "unit": "%"}, {"measurement": "activity at 6700 µg/mL", "setting": "[5]", "result": 127, "unit": "%"}, {"measurement": "activity at 6700 µg/mL", "setting": "[6]", "result": 106, "unit": "%"}]}]}
